Literature values, collected in patent US8071785B2, “Synthesis and evaluation of 18F-labelled-alkyl-1-[(1R)-1-phenylethyl]-1H-imidazole-5-carboxylate as a tracer for the quantification of β-11-hydroxylase enzyme in the adrenal glands” (priority 2006, dated 2011).

Assays:
[1] = test system: lesions of adrenocortical origin; conditions: clinical findings
[2] = test system: steroid 110-hydroxylation
[3] = human adrenocortical tissue slices

CC(c1ccccc1)n1cncc1C(=O)O[11CH3] (centres unmarked) [[O-methyl-^11C]metomidate]
uptake in lesions of adrenocortical origin, including adenomas [1]: high uptake
uptake in lesions of non-adrenocortical origin [1]: very low uptake

CCOC(=O)c1cncn1[C@H](C)c1ccccc1 [etomidate]
conversion of 11-deoxycorticosterone (DOC) to corticosterone and aldosterone [2, 3]: block the conversion
conversion of 11-deoxycortisol to cortisol [2, 3]: block the conversion

COC(=O)c1cncn1[C@H](C)c1ccccc1 [metomidate, Methyl 1-[(1R)-1-phenylethyl]-1H-imidazole-5-carboxylate]
inhibition of steroid 110-hydroxylation ([2]; relative to etomidate): equally potent inhibitor
